Reference: US20160221948A1, “NITROGEN-CONTAINING SATURATED HETEROCYCLIC COMPOUND” (SUMITOMO CHEMICAL COMPANY, LIMITED, priority 2013, published 2016)

Columns and labels:
Slc:ddY mice [1] = experiment: Mouse Y-shaped maze test, scopolamine-induced memory impairment; type: in vivo; conditions: for spontaneous alternations: Scopolamine HBr 0.6 mg/kg subcutaneous
Method: Evaluation of amelioration in cognitive impairment using mouse Y-shaped maze test (hereinafter, may be called “Y-maze test”)
In the Y-maze test using Slc:ddY mice (male, Japan SLC, Inc.) with body weight of 25-35 g or 27-30 g, when 0.6 mg/kg of Scopolamine HBr (cat. No. S0929, Sigma Aldrich, USA) is subcutaneously administered to mice, memory impairment is caused, and reducing in spontaneous alternation is observed. Accordingly, mice were pre-treated by orally receiving compounds involved with the present invention, and ameliorating action in memory impairment was evaluated. […] (hereinafter, spontaneous alternations in each group in Example 21 are shown: 0.5% MC receiving group, 71.2±3.5; Scopolamine receiving group, 47.5±2.6; 1 mg/kg receiving group, 60.7±2.6; 3 mg/kg receiving group, 64.6±2.2.)

Slc:ddY mice [2] = experiment: Mouse novel object recognition test (mORT); type: in vivo; conditions: 3 mg/kg (oral), administered before the first trial
Method: Evaluation of cognitive function using mouse novel object recognition test (hereinafter, may be called “mORT”)
In the mORT using Slc:ddY mice (male, Japan SLC, Inc.) with body weight of 25-45 g or 35-40 g, memory deterioration to familiar subject depending on the interval time between the first trial (training) and the second trial (test) is observed. If the second trial is performed 24 hours after performing the first trial, significant forgetting is observed. […] […] (discrimination index as indexes for cognitive function are shown: 0.5% MC receiving group, 0.054±0.026; 3 mg/kg receiving group, 0.245±0.066.)

human SSTR4 = human SSTR4 (Homo sapiens, UniProt P31391); experiment: Evaluation of agonist activities using human SSTR4-stably expressing cells (aequorin luminescence); type: cell-based; set-up: expressed in transfected cells; host or cells: HEK293; conditions: for SSTR4 agonist activity compared with other compounds: Tables 25 to 27; for EC50: luminescence signal, 1 μmol/L somatostatin taken as 100%
Chain of human SSTR4 (P31391 whole entry): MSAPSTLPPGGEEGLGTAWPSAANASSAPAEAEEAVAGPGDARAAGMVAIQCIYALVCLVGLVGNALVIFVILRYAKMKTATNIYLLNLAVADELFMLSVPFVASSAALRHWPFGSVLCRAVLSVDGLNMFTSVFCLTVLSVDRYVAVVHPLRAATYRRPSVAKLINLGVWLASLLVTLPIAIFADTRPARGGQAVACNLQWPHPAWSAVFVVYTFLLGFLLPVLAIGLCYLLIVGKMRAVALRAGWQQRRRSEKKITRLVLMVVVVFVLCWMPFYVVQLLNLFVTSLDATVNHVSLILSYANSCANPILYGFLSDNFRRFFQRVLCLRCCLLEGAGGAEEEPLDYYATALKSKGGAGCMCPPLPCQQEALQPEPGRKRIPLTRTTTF
Method: Evaluation of Agonist Activities Using Cells that stably expressing human-derived SSTR4 (human SSTR4-stably expressing cells)
(1) Human SSTR4-Stably Expressing Cells
Human SSTR4-stably expressing cells were prepared, and cultured. Specifically, HEK293 cells, human kidney-derived cells, were used as host cells. By introducing pcDNA3.1 (cat. No. V79020, invitrogen, Carlsbad, Calif., USA) to which human SSTR gene was inserted into HEK293 cells, human SSTR4-stably expressing cell line was obtained. For selection, G418 (cat. No. 16513-84, Nacalai tesque, Japan) was used.
As the culture medium, D-MEM medium (cat. No. 11995, GIBCO, USA), containing 10% FBS and 200 μg/mL G418, was used, the culture was performed in a 225 cm^2 flask (cat. No. 11-006-010, Iwaki, Japan).
At about 80% confluence, the cells were harvested by treating with 20-fold diluted 0.25% Trypsin-EDTA (cat. No. 35554-64, Nacalai, tesque, Japan). The harvested cells were prepared at a reaction medium composed of Hanks Buffer (cat. No. 14065-056, invitrogen, Carlsbad, Calif., USA)/20 mM Hepes (cat. No. 15630-080, invitrogen, Carlsbad, Calif., USA), and 0.1% BSA (cat. No. A7906, Sigma Aldrich, USA) to 70000 cells/mL. Gα16 and apoaequorin were transiently introduced to the harvested cells, and the cells were seeded to a 384 well plate (cat. No. 781090, Greiner, Germany) at about 2000 cells/30 μL/well. On the next day of cell seeding, Coelenterazine H (cat. No. S2011, Promega, USA) was added to each well (10 μL/well) to make a final concentration of 0.5 μmol/L, and the plate was centrifuged. Then, the plate was left at room temperature for 4 hours in shaded state.
(2) Preparation of Test Compounds
DMSO solution of each test compound having 1000-fold larger concentration than the final concentration was prepared. The DMSO solutions were made to have 10-fold concentration than the final concentration with Hanks/20 mmol/L Hepes/0.1% BSA.
(3) Evaluation of Agonist Activity
For detection of luminescence signal due to SSTR4-stimulation, FDSS7000 (manufactured by Hamamatsu Photonics K.K.) was used. To plates having cells and the luminescence substrate, solutions of test compounds were added, then each luminescence signal was measured for 90 seconds, and each relative luminescence unit (RLU) was calculated. Based on luminescence signal from the wells to which a 1 μmol/L somatostatin solution was added taken as 100%, agonist activity of each test compound was evaluated.

[3] = Pharmacokinetic test (PK test) using rodents; type: in vivo; conditions: mouse, brain and plasma; mice, 10 mg/kg oral, an hour and 4 hours after; read-out: brain-plasma concentration ratio
Method: Moreover, it was verified, as the results of a pharmacokinetic test (PK test) using rodents, that the compound of the present invention has more excellent in vivo kinetics, central nervous system penetration, and exposure level, compared with the pyrrolidine derivative described in Patent Literature 1. In particular, the following Test Example 8 was performed.
Pharmacokinetic Test (PK Test) Using Rodents
Compounds of the present invention were orally administered to mice at a dose of 10 mg/kg, and an hour and 4 hours after, the plasma and the brain were collected, concentrations of the administered compounds were measured by LC/MS/MS. As well, protein binding rates in the plasma and the brain were measured with equilibrium dialysis method, and concentrations of non-binding compounds were calculated. The brain-plasma concentration ratio was about 5 in any cases of an hour and 4 hours after for compounds obtained in Examples 7, 14, 15, 16, 17, 18, 20, 21, 27, 40, and 50, which indicated excellent central nervous system penetration.

EC50 (human SSTR4) [nM] | SMILES | other results
 | CN1CCC[C@H](C(=O)NC(C)(C)c2cccc3ccccc23)C1 [Example 2, (3S)-1-methyl-N-[2-(naphthalene-1-yl)propane-2-yl]pyperidine-3-carboxamide] | spontaneous alternations (Slc:ddY mice [1]; 1 mg/kg oral): 59.6±3.2; spontaneous alternations (Slc:ddY mice [1]; 3 mg/kg oral): 65.0±1.8; ameliorating action in memory impairment (Slc:ddY mice [1]; at 1 or 3 mg/kg (oral)): significant ameliorating action in memory impairment; memory enhancing action (Slc:ddY mice [2]): a tendency to enhance memory; SSTR4 agonist activity compared with other compounds (human SSTR4): stronger SSTR4 agonist activity
4.3 | CN1CCCC(C(=O)NC(C)(C)c2cc(Cl)cc(Cl)c2)C1 (stereo not drawn) [Example 7] | Kp [3]: ~5; SSTR4 agonist activity compared with other compounds (human SSTR4): stronger SSTR4 agonist activity
5.7 | Cc1c(Cl)cccc1C(C)(C)NC(=O)C1CCCN(C)C1 (stereo not drawn) [Example 14] | Kp [3]: ~5
3.5 | CN1CCCC(C(=O)NC(C)(C)c2cc(Cl)ccc2Cl)C1 (stereo not drawn) [Example 15] | Kp [3]: ~5; SSTR4 agonist activity compared with other compounds (human SSTR4): stronger SSTR4 agonist activity
2.3 | CN1CCCC(C(=O)NC(C)(C)c2cccc(Cl)c2Cl)C1 (stereo not drawn) [Example 16] | Kp [3]: ~5; SSTR4 agonist activity compared with other compounds (human SSTR4): stronger SSTR4 agonist activity
2.3 | CN1CCCC(C(=O)NC(C)(C)c2ccc(Cl)cc2Cl)C1 (stereo not drawn) [Example 17] | Kp [3]: ~5; SSTR4 agonist activity compared with other compounds (human SSTR4): stronger SSTR4 agonist activity
2 | CN1CCC[C@H](C(=O)NC(C)(C)c2cc(Cl)cc(Cl)c2)C1 [Example 18] | Kp [3]: ~5; SSTR4 agonist activity compared with other compounds (human SSTR4): stronger SSTR4 agonist activity
1.3 | CN1CCC[C@H](C(=O)NC(C)(C)c2ccc(Cl)cc2Cl)C1 [Example 20, (3S)—N-[2-(2,4-dichlorophenyl)propane-2-yl]-1-methylpiperidine-3-carboxamide] | Kp [3]: ~5; SSTR4 agonist activity compared with other compounds (human SSTR4): stronger SSTR4 agonist activity
2.1 | Cc1c(Cl)cccc1C(C)(C)NC(=O)[C@H]1CCCN(C)C1 [Example 27, (3S)—N-[2-(3-chloro-2-methylphenyl)propane-2-yl]-1-methylpiperidine-3-carboxamide] | Kp [3]: ~5; SSTR4 agonist activity compared with other compounds (human SSTR4): stronger SSTR4 agonist activity
4.8 | CN1CCC[C@H](C(=O)NC(C)(C)c2ccccc2Cl)C1 [Example 40, (3S)—N-[2-(2-chlorophenyl)propane-2-yl]-1-methylpiperidine-3-carboxamide] | Kp [3]: ~5
4.3 | Cc1ccc(Cl)cc1C(C)(C)NC(=O)[C@H]1CCCN(C)C1 [Example 50, (3S)—N-[2-(5-chloro-2-methylphenyl)propane-2-yl]-1-methylpiperidine-3-carboxamide] | Kp [3]: ~5
> 100 | CN1CCC(C(=O)NC(C)(C)c2ccccc2)C1 (stereo not drawn) [Example 78] | 
43.5 | CN1CC[C@H](C(=O)NC(C)(C)c2ccccc2Cl)C1 [Example 79] | 
> 100 | CN1CC[C@@H](C(=O)NC(C)(C)c2ccccc2Cl)C1 [Example 80] | 
7.4 | CN1CC(O)CC(C(=O)NC(C)(C)c2cccc3ccccc23)C1 (stereo not drawn) [Example 83] | 
16.2 | CC1CC(C(=O)NC(C)(C)c2cccc3ccccc23)CN(C)C1 (stereo not drawn) [Example 86] | 
2.6 | COC1CC(C(=O)NC(C)(C)c2cccc3ccccc23)CN(C)C1 (stereo not drawn) [Example 91] | 
3.2 | CN1CC(F)CC(C(=O)NC(C)(C)c2cccc3ccccc23)C1 (stereo not drawn) [Example 92] | 
6 | CN1CC(C(=O)NC(C)(C)c2cccc3ccccc23)CC(C)(C)C1 (stereo not drawn) [Example 93] | 
28.8 | CN1CC(C(=O)NC(C)(C)c2cccc3ccccc23)CC(F)(F)C1 (stereo not drawn) [Example 94] | 

EC50 (human SSTR4) [nM] | SMILES | other results
85 | CN1CC(C(=O)NC(C)(C)c2cccc(Cl)c2Cl)CCC1(C)C (stereo not drawn) [Example 97] | 
> 100 | CN1CCCC(C(=O)NC(C)(C)c2cccc(Cl)c2Cl)C1c1ccccc1 (stereo not drawn) [Example 98] | 
27.9 | CC1CC(C(=O)NC(C)(C)c2cccc(Cl)c2Cl)CN(C)C1 (stereo not drawn) [Example 100] | 
33.6 | CN1CC(C(=O)NC(C)(C)c2cccc(Cl)c2Cl)CC(F)(F)C1 (stereo not drawn) [Example 101] | 
61.8 | CCC1CCC(C(=O)NC(C)(C)c2cccc(Cl)c2Cl)CN1C (stereo not drawn) [Example 102] | 
31.4 | COC1CC(C(=O)NC(C)(C)c2cccc(Cl)c2Cl)CN(C)C1 (stereo not drawn) [Example 103] | 
2.8 | CCN1CCC[C@H](C(=O)NC(C)(C)c2ccccc2Cl)C1 [Example 110, (3S)—N-[2-(2-chlorophenyl)propane-2-yl]-1-ethylpiperidine-3-carboxyamide] | SSTR4 agonist activity compared with other compounds (human SSTR4): stronger SSTR4 agonist activity
6.9 | CCN1CCCC(C(=O)NC(C)(C)c2cccc3ccccc23)C1 (stereo not drawn) [Example 111] | 
> 100 | CC(C)(NC(=O)C1CCCN(CCF)C1)c1cccc2ccccc12 (stereo not drawn) [Example 112] | 
3.1 | CC(C)(NC(=O)[C@H]1CCCN(CCF)C1)c1cccc2ccccc12 [Example 113] | 
6.2 | CCCN1CCC[C@H](C(=O)NC(C)(C)c2cccc3ccccc23)C1 [Example 114] | 
1.9 | CC(C)N1CCC[C@H](C(=O)NC(C)(C)c2cccc3ccccc23)C1 [Example 115, (3S)—N-[2-(naphthalene-1-yl)propane-2-yl]-1-(propane-2-yl)pyperidine-3-carboxamide] | SSTR4 agonist activity compared with other compounds (human SSTR4): stronger SSTR4 agonist activity
1.7 | CCN1CCCC(C(=O)NC(C)(C)c2cccc3ccccc23)C1 (stereo not drawn) [Example 116] | SSTR4 agonist activity compared with other compounds (human SSTR4): stronger SSTR4 agonist activity
6.9 | CCCN1CCCC(C(=O)NC(C)(C)c2cccc3ccccc23)C1 (stereo not drawn) [Example 117] | 
55.2 | CCCCN1CCCC(C(=O)NC(C)(C)c2cccc3ccccc23)C1 (stereo not drawn) [Example 118] | 
3.5 | CC(C)N1CCCC(C(=O)NC(C)(C)c2cccc3ccccc23)C1 (stereo not drawn) [Example 119] | 
22.7 | CCC(C)N1CCCC(C(=O)NC(C)(C)c2cccc3ccccc23)C1 (stereo not drawn) [Example 120] | 
11.7 | CC(C)N1CCC[C@H](C(=O)NC(C)(C)c2ccccc2Cl)C1 [Example 121] | 
3.6 | [2H]C([2H])([2H])N1CCC[C@H](C(=O)NC(C)(C)c2ccccc2Cl)C1 [Example 122] | 
